Data reported in article PMC5675611, “GZD824 suppresses the growth of human B cell precursor acute lymphoblastic leukemia cells by inhibiting the SRC kinase and PI3K/AKT pathways” (Oncotarget, 2016).

Experiments:
NALM6 = assay: CCK8 viability / proliferation assay; assay type: cell-based; settings: Homo sapiens, NALM-6, 24 h, read-out: IC50, inhibition of proliferation
Experimental: (§1) Viability was calculated relative to time-matched untreated controls. D824 is short for GZD824 in the following figure. B. Left: representative flow cytometric analysis of NALM6 and SUPB15 cells treated with DMSO, 1μM, or 3μM of GZD824 for 24 hours. Right: Statistical analysis of AnnexinV-positive cells in GZD824 treated NALM6 and SUPB15 cells. C. Left: representative images of cell cycle distribution in NALM6 and SUPB15 cells treated with DMSO or 3μM of GZD824 for 24 hours. Right: Statistical analysis of the distribution of cells in G0/G1 phases in GZD824 treated cells. Data are shown as the mean ± SEM (error bars) from three independent experiments. Significance values: ^*P<0.05; ^**P<0.01; ^***P<0.001. […] For each plot they are listed in the order upper left, upper right, lower left, lower right.

SUPB15 = assay: CCK8 viability / proliferation assay; assay type: cell-based; settings: Homo sapiens, SUP-B15, 24 h, read-out: IC50, inhibition of proliferation
Experimental: as §1

SRC = target: T1, SRC (Homo sapiens, UniProt P12931); assay: Active-site-dependent competition kinase binding assay (KINOMEscan)
T1 construct: purchased Ambit Bioscience (CA, USA), KINOMEscan service
T1 sequence (P12931 whole entry): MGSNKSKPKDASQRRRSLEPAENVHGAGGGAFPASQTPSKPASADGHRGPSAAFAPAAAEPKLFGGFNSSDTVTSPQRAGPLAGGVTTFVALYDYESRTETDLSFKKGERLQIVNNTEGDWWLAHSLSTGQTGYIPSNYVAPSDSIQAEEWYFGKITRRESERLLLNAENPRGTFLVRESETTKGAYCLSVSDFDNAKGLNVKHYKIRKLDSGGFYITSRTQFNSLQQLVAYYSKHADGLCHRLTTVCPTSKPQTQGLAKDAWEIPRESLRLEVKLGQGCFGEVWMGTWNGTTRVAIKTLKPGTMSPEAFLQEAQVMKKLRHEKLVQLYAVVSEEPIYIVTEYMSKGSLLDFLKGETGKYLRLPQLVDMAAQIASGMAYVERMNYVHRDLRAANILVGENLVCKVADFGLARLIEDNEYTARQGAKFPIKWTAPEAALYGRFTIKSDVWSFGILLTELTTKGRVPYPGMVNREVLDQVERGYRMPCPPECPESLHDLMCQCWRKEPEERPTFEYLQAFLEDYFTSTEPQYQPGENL
Experimental: (§2) Kinase assay was performed as previously described. The binding activities of GZD824 were analyzed by KINOME scan system conducted by Ambit Bioscience (CA, USA). Briefly, kinases were tagged with DNA. The ligands were biotinylated and immobilized to streptavidin coated beads. The binding reactions were assembled by incubating DNA-tagged kinases, immobilized ligands, and test compounds in binding reactions (20% SeaBlock, 0.17×PBS, 0.05% tween-20, 6 mM DTT) for 1.0 h at room temperature. The affinity beads were washed with washing buffer (1×PBS, 0.05% Tween-20) first and then elution buffer (1×PBS, 0.05% Tween 20, 0.5μM nonbiotinylated affinity ligands). The kinase concentration in the eluate was determined by quantitative PCR of the DNA tagged to the kinase. The ability of the test compound to bind to the kinase was evaluated with percent control (%) as (test compound signal −positive control signal)/negative control signal−positive control signal) ×100%. Negative control is DMSO control (100% ctrl) and positive control is control compound (0% ctrl).

ABL = target: T2, ABL (Homo sapiens, UniProt P00519); assay: as above
T2 construct: purchased Ambit Bioscience (CA, USA), KINOMEscan service
T2 sequence (P00519 whole entry): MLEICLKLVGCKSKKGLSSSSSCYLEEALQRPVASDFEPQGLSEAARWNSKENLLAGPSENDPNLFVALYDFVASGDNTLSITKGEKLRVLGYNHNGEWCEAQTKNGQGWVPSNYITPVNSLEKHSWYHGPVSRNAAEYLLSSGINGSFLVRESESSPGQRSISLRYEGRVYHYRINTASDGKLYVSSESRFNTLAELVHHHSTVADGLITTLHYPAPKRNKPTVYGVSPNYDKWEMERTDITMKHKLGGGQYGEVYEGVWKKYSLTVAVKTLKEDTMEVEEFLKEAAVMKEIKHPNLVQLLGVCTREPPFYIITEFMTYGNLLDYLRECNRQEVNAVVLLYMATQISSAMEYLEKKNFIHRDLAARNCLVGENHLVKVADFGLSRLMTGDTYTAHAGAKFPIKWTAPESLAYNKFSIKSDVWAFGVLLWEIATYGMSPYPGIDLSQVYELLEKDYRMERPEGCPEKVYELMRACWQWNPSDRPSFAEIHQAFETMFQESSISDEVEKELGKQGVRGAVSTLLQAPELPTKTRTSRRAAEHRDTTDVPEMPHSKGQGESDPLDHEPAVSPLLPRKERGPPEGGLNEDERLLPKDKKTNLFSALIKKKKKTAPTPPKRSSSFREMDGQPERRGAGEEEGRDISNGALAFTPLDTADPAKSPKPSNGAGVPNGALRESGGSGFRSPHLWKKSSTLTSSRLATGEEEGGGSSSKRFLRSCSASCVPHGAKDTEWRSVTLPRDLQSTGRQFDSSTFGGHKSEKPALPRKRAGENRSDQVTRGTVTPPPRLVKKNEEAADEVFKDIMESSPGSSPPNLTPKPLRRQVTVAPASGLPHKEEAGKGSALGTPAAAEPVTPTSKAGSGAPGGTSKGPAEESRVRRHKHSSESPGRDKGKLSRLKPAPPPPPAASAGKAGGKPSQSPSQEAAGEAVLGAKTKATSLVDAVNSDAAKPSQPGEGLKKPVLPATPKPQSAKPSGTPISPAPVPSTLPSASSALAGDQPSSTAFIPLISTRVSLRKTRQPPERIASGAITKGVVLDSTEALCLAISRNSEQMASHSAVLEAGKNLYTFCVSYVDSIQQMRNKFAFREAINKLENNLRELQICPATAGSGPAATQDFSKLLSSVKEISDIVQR
Experimental: as §2

JAK = assay: as above
Experimental: as §2

MAPK = assay: as above
Experimental: as §2

SUPB15 cells = assay: Annexin V apoptosis flow cytometry; assay type: cell-based, human; settings: 24 h
Experimental: Human pre-B ALL cell lines NALM6 and SUPB15 were purchased from American Type Culture Collection (ATCC, Maryland, USA). All pre-B ALL cell lines were maintained in cell culture media and conditions as recommended by the ATCC. Cells were treated with GZD824 for 24 hours. GZD824 (3μM, 1μM, or 0.5μM) was used in the experiments unless otherwise noted. NALM6 and SUPB15 cells were maintained in RPMI-1640 medium (Gibco, New York, NY, USA) with 10% fetal bovine serum (Biochrom, Melbourne, Australia). For identification of apoptotic cells among NALM6, SUPB15, and primary pre-B ALL cells, the GZD824-treated cells were stained with Annexin V Apoptosis Detection Kit (88-8007, BD ebioscience, CA, USA) according to the manufacturer's instructions (Affymetrix ebioscience, CA, USA) and then subjected to flow cytometric analysis by the Accuri™ C6 (BD Biosciences, CA, USA). For the in vitro drug sensitivity test in Figure 6A, the human CD45+ cells in spleen and bone marrow from sick mice account for over 95% of the total. We enriched human CD45+ cells in PB by MACS according to the manufacturer's instruction. After the enrichment, the purity of human CD45+ cell in PB reached 95%. […] All data were analyzed with FlowJo software (Tree Star, Inc., Ashland, USA).

[1] = tested on: STAT3 target genes (BCL-XL, CCND1, CDK4, CDKN1A); assay: qRT-PCR of STAT3 target genes; assay type: cell-based, human; settings: 3 μM, 24 hours, normalized to GAPDH, vs control
Experimental: Figure 5 GZD824 inhibits the SRC kinase in pre-B ALL cells A-C. Western blot analysis of […]-treated NALM6 cells. Cells were treated with DMSO, GZD824 (1μM), or GZD824 (3μM) for 24 hours. Lysates were analyzed with antibodies to (A) phospho-SRC and SRC; (B) phospho-STAT3 and STAT3; and (C) phospho-Rb, Rb, and C-Myc. D. qRT-PCR products of BCL-XL, CCND1, CDK4, and CCK[…] mRNA were normalized to GAPDH and presented as fold increase or decrease compared to control, 24 hours after treatment with 3 μM GZD824. E. NALM6 cells were treated with GZD824, SRC inhibitor (KX2-391), STAT3 inhibitor (HO-3867), or DMSO for 24 hours. Statistical analysis of Annexin V-positive cells in 3μM of drug treated NALM6 cells. All data from independent experiments are presented as mean ± SEM. Significance values: ^*P<0.05; ^**P<0.01; ^***P<0.001. RNA was extracted using TRIzol reagent (15596-026, Invitrogen, Grand Island, NY, USA), according to the manufacturer's recommended protocol. qRT-PCR was performed using Applied Biosystems StepOne and StepOne Plus Real-Time PCR Systems (Foster City, CA, USA). The experiments were repeated a minimum of three times to confirm the results.

[2] = tested on: normal human primary B cells; assay: Annexin V apoptosis of normal B cells; assay type: cell-based; settings: 1μM, vs DMSO

Cc1ccc(C(=O)Nc2ccc(CN3CCN(C)CC3)c(C(F)(F)F)c2)cc1C#Cc1cnc2[nH]ncc2c1 [GZD824]
IC50 (NALM6): 500 nM | IC50 (SUPB15): > 500 nM | remaining binding at 0.01 µM (SRC; SRC, 10 nM, mean of two independent experiments, read-out: %Ctrl@10nM): 26% | remaining binding at 0.1 µM (SRC; SRC, 100 nM, mean of two independent experiments, read-out: %Ctrl@100nM): 0.75% | binding to the SRC kinase (in words) (SRC; kinase assay): high affinity | remaining binding at 0.01 µM (ABL; read-out: %Ctrl@10nM): 2.8% | remaining binding at 0.1 µM (ABL; read-out: %Ctrl@100nM): 0.15% | %Ctrl@10nM (JAK; JAK, 10 nM, mean of two independent experiments): 100% | %Ctrl@100nM (JAK; JAK, 100 nM, mean of two independent experiments): 100% | binding to JAK (in words) (JAK; kinase assay): does not bind | %Ctrl@10nM (MAPK; MAPK, 10 nM, mean of two independent experiments): 81% | %Ctrl@100nM (MAPK; MAPK, 100 nM, mean of two independent experiments): 81% | binding to MAPK (in words) (MAPK; kinase assay): does not bind | apoptotic rate (SUPB15 cells; SUPB15, 1μM): moderate | cells undergoing apoptosis (AnnexinV+) (SUPB15 cells; SUPB15, 3μM): 48.3% | BCL-XL mRNA expression [1]: downregulation | CCKN1A (CDKN1A) mRNA expression [1]: upregulated | CCND1 mRNA expression [1]: downregulation | CDK4 mRNA expression [1]: downregulation | apoptosis in normal human primary B cells [2]: did not induce apoptosis
